From PMC7470027, “Synthesis and structure-activity relationships of novel 5-(hydroxamic acid)methyl oxazolidinone derivatives as 5-lipoxygenase inhibitors” (Journal of Enzyme Inhibition and Medicinal Chemistry, 2020)
Where two headings read alike, the source gives them in different places.

Tests used:
[1] = test system: 5-LO-dependent generation of LTB4 from activated human whole blood; assay: Inhibition of 5-LO product LTB4 from activated human whole blood (LPS/FMLP); format: cell-based; conditions: LPS-primed, FMLP-stimulated human whole blood; 95% confidence interval in brackets; read-out: Human whole blood LTB4 IC50 (CI)
Method: All compounds were evaluated for inhibitory activity against the 5-LO-dependent generation of LTB4 from activated human whole blood. With ethical approval from the Health Sciences Centre Ethical Committee of Kuwait University, heparinised fresh human blood samples from apparently healthy individuals of both sexes were obtained from the Kuwait Central Blood Bank. All donors gave informed consent and the work was carried out in accordance with the “Declaration of Helsinki” for experiments involving human subjects. Aliquots of 185 µl of whole blood were dispensed into each well of a 96-well culture plate containing 5 µl of the priming agent, LPS (1 µg/ml final concentration). […] After further incubation for 15 min at 37 °C, 5 µl of FMLP (1 µM final concentration) was added to stimulate LT production. The reaction was stopped 15 min later, and the supernatants were recovered by centrifugation and stored at −40 °C pending analysis of LTB4 content.
(§1) Appropriately diluted supernatants were assayed for the released products – LTs (LTB4 and LTC4), by the enzyme immunoassay (EIA) method using assay kits supplied by R&D Systems (Minneapolis, MN) and following the manufacturer’s instructions.
(§2) All data were analysed using GraphPad Prism software (GraphPad Software, San Diego, CA). […] Differences between experimental groups were first analysed by one-way ANOVA, followed by Bonferroni’s post-hoc test. A p-value of less than 0.05 was taken as statistically significant.

[2] = test system: 5-LO product LTC4 from isolated human monocytes; assay: Inhibition of 5-LO product LTC4 from isolated human monocytes (A23187); format: cell-based; conditions: calcium ionophore A23187, 95% confidence interval in brackets, read-out: Human monocyte LTC4 IC50 (CI)
Method: Mononuclear cells were first isolated from heparinised blood using the Ficoll-Hypaque gradient centrifugation method. Monocytes were subsequently purified by adherence to plastic according to standard protocols. The purity of the adherent monocytes (CD14+) was routinely confirmed by flow cytometry to be >95% and viability (by trypan blue exclusion method) was routinely >97%. Adherent monocytes were then washed and incubated in 190 µl culture medium RPMI-1640 supplemented with 100 U/ml penicillin, 100 µg/ml streptomycin and 10% heat-inactivated foetal bovine serum (Sigma-Aldrich, St Louis, MO). […] After further incubation for 15 min, the culture supernatants were recovered by centrifugation and stored at −40 °C pending LTC4 determination.
as §1, §2

[3] = test system: 5-LO product LTC4 from allergen/IgE-activated bone marrow-derived mouse mast cells (BMMC); assay: Inhibition of 5-LO product LTC4 from allergen/IgE-activated bone marrow-derived mouse mast cells (BMMC); format: cell-based; conditions: anti-DNP IgE/DNP-BSA-activated BMMC, 95% confidence interval in brackets, read-out: Mouse mast cell LTC4 IC50 (CI)
Method: Bone marrow-derived mast cells (BMMC) were generated from pathogen-free 5 to 7-weeks-old male Balb/c mice according to the method of Davis et al.[28]. Essentially, bone marrow cells were obtained by flushing the femoral bone marrow and the recovered cells cultured in RPMI 1640 medium supplemented with 10% FBS, 100 U/ml penicillin, and 100 µg/ml streptomycin, 25 mM HEPES, 1.0 mM sodium pyruvate, 0.1 mM nonessential amino acids, 0.0035% 2-mercaptoethanol, and 30 ng/ml mouse recombinant IL-3, with culture medium, replaced every 2 days. Cells were used after 4–8 weeks of culture, by which time at least 97% of the cells would have differentiated into mast cells, as routinely obtained in our laboratory.
The generated BMMCs were seeded at 5 × 10^4 cells/well in a 96-well flat-bottom culture plate and passively sensitised overnight with 0.5 µg/ml anti-DNP monoclonal IgE antibody. The cells were then washed twice to remove any unbound antibody and subsequently resuspended in reaction buffer (135 mM NaCl, 5 mM KCl, 1.8 mM CaCl2, 1 mM MgCl2, 5.6 mM glucose, 0.05% BSA and 20 mM HEPES, pH 7.4). They were then pre-incubated with the test compounds (0.001 − 30 μM) or the solvent (0.05% DMSO) for 15 min before being stimulated with the specific antigen, DNP-BSA (10–30 ng/ml). After 30 min incubation at 37 °C, the amount of LTC4 released into the supernatant was determined by ELISA as described below.
as §1, §2

[4] = target: T1, recombinant human 5-LO (Homo sapiens, UniProt P09917); assay: Direct inhibition of 5-LO activity in a cell-free assay (H2DCF-DA fluorescence); format: biochemical; conditions: for IC50: cell-free, recombinant human 5-LO, 95% confidence interval in brackets
T1 sequence (P09917 1-674): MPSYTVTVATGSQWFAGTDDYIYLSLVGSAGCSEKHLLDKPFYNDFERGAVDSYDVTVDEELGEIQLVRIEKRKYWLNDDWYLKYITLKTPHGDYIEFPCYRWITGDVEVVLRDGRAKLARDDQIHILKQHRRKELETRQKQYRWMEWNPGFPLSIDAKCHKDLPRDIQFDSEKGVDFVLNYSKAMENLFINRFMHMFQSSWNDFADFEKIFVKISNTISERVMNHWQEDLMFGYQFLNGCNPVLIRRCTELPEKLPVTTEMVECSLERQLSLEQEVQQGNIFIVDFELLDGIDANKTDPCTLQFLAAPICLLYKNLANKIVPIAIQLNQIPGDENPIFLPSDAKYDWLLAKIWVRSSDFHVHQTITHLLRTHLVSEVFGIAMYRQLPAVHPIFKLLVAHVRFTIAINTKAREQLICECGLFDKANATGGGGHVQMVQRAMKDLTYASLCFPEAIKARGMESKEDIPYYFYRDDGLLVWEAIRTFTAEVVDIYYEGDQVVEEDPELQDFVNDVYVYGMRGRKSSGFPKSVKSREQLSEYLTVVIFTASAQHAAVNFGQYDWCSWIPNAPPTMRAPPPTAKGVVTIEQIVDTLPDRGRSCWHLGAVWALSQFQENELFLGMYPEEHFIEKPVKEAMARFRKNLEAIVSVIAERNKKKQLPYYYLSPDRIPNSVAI
Method: The assay was based on the oxidation of the dye 2′,7′-dichlorodihydrofluorescein diacetate (H2DCF-DA) to a highly fluorescent product by 5-LO enzymatic products. H2DCF-DA (60 µM) was first pre-cleaved by incubating with 450 mU/ml recombinant human 5-LO enzyme in Tris buffer (containing 50 mM Tris, pH = 7.5, 2 mM EDTA, 2 mM CaCl2, 1 mM DTT and 0.6 U/ml glutathione peroxidase) for 10 min at room temperature. […] After 10 min incubation at room temperature, the reaction was started with the addition of 50 µl of substrate solution (Tris buffer containing 20 µM ATP and 20 µM arachidonic acid (AA). After a further 20 min, the reaction was terminated with 100 µl acetonitrile. Fluorescence was read at 500 nm excitation and 520 nm emission, with Novostar^R microplate reader (BMG Labtech, Offenburg, Germany). Appropriate controls, including 100 µM nordihydroguaiaretic acid (NDGA), were included to isolate only the 5-LO-attributable, NDGA-inhibitable RFU values.
as §2

[5] = test system: leukotriene (LT) biosynthesis / 5-LO; assay: Overall activity across the four in vitro test systems (three cell-based LT release assays and 5-LO); conditions: for Activity across the in vitro test systems (in words): cell-based systems and cell-free 5-LO
Method: Furthermore, in order to confirm that the in vitro inhibitory activity of the compounds was not due to the direct toxic effects on the cells, the effect of the compounds on the viability of isolated human monocytes after 3 h and 24 h treatment was performed. Finally, in vivo anti-inflammatory studies were performed using the zymosan-induced peritoneal inflammation model in mice, which is a well-known model in which the LTs are known to play a critical role[26].
The inhibitory activity data for the tested compounds obtained in three cell-based in vitro test systems - LTB4 release from human whole blood, LTC4 release from isolated human monocytes and LTC4 release from IgE/antigen-activated mouse mast cells, are shown in Table 1. Similar data on the direct inhibitory effect on the enzymatic activity of recombinant human 5-LO, together with the calculated Clog P (log of partition coefficient) values, which is an indication of the lipophilicity of each compound, are also shown in Table 1.

[6] = read-out: Direct inhibition of 5-LO activity. IC50 (CI)

Row | IC50 [1] [nM] | IC50 ([2]; Monocyte) [µM] | IC50 ([3]; Mus musculus) [nM] | IC50 [4] [µM] | melting point [°C] | IC50 ([5]; summary statements, in vitro test systems, read-out: IC50 (test system not specified / across test systems)) [nM] | IC50 [2] [µM] | IC50 [3] [nM] | IC50 [4, 6] [µM] | Inhibition of isolated 5-LO enzyme activity (in words) ([4]; cell-free experiments) | SMILES | Activity across the in vitro test systems (in words) [5]
1 | 5500 |  |  |  |  |  |  |  |  |  | O=C(C1CCCC1)N(O)C[C@H]1CN(c2ccc(N3CCOCC3)c(F)c2)C(=O)O1 [PH-244, (R)-N-((3-(3-fluoro-4-morpholinophenyl)-2-oxooxazolidin-5-yl)methyl)-N-hydroxycyclopentanecarboxamide] | 
2 | 1300 |  |  |  |  |  | 7.5 | 8700 | 3.5 |  | O=C(C1CC1)N(O)C[C@H]1CN(c2ccc(N3CCOCC3)c(F)c2)C(=O)O1 [PH-211] | active in all four test systems
3 | 3400 |  |  |  |  |  |  |  |  |  | O=C(C1CCC1)N(O)C[C@H]1CN(c2ccc(N3CCOCC3)c(F)c2)C(=O)O1 [PH-245, (R)-N-((3-(3-fluoro-4-morpholinophenyl)-2-oxooxazolidin-5-yl)methyl)-N-hydroxycyclobutanecarboxamide] | 

The next lines start with the molecule.

Row | SMILES | IC50 [1] [nM] | IC50 ([2]; Monocyte) [µM] | IC50 ([3]; Mus musculus) [nM] | IC50 [4] [µM] | melting point [°C] | IC50 ([5]; summary statements, in vitro test systems, read-out: IC50 (test system not specified / across test systems)) [nM] | IC50 [2] [µM] | IC50 [3] [nM] | IC50 [4, 6] [µM] | Inhibition of isolated 5-LO enzyme activity (in words) ([4]; cell-free experiments) | Activity across the in vitro test systems (in words) [5]
4 | CCCCC(=O)N(O)C[C@H]1CN(c2ccc(N3CCOCC3)c(F)c2)C(=O)O1 [PH-241, (R)-N-((3-(3-fluoro-4-morpholinophenyl)-2-oxooxazolidin-5-yl)methyl)-N-hydroxypentanamide] | 2200 | 3.2 | 2800 | 3.3 |  |  |  |  |  |  | active in all four test systems
5 | CC(c1cc2ccccc2s1)N(O)C(N)=O (racemic) [Zileuton, (±)1–(1-(benzo[b]thiophen-2-yl)-ethyl)-1-hydroxyurea, reference compound] | 700 | 0.5 | 400 |  |  |  |  |  |  |  | 
6 | CC(C)CC(=O)N(O)C[C@H]1CN(c2ccc(N3CCOCC3)c(F)c2)C(=O)O1 [PH-239, (R)-N-((3-(3-fluoro-4-morpholinophenyl)-2-oxooxazolidin-5-yl)methyl)-N-hydroxy-3-methylbutanamide] | 3500 | 8 | 3100 | 4.7 | 122 to 124.5 |  |  |  |  |  | active in all four test systems
7 | CCCCCCCC(=O)N(O)C[C@H]1CN(c2ccc(N3CCOCC3)c(F)c2)C(=O)O1 [PH-251, (R)-N-((3-(3-fluoro-4-morpholinophenyl)-2-oxooxazolidin-5-yl)methyl)-N-hydroxyoctanamide] | 1900 | 2.4 | 200 | 1.6 |  | < 1000 |  |  |  |  | active in all four test systems
8 | CCCCCC(=O)N(O)C[C@H]1CN(c2ccc(N3CCOCC3)c(F)c2)C(=O)O1 [PH-247, (R)-N-((3-(3-fluoro-4-morpholinophenyl)-2-oxooxazolidin-5-yl)methyl)-N-hydroxyhexanamide] | 2300 | 2.5 | 2900 | 3.4 | 118.5 to 120.5 |  |  |  |  |  | active in all four test systems
9 | CC(C)CC(=O)ON(C[C@H]1CN(c2ccc(N3CCOCC3)c(F)c2)C(=O)O1)C(=O)CC(C)C [PH-237, (R)-N-((3-(3-fluoro-4-morpholinophenyl)-2-oxooxazolidin-5-yl)methyl)-3-methyl-N-((3-methylbutanoyl)oxy)butanamide] | > 50000 | > 50 | > 50000 | > 30 | 89 to 90 |  |  |  |  |  | inactive in both systems
10 | CCCCCC(=O)ON(C[C@H]1CN(c2ccc(N3CCOCC3)c(F)c2)C(=O)O1)C(=O)CCCCC [PH-246] | 1500 |  |  |  |  |  | 7.1 | 3300 | 21.6 | very weak | 
